These results are taken from US8252832B2, “Kinesin inhibitors as cancer therapeutics” (Novartis AG, priority 2007, dated 2012).

Series [1] is described as follows: MV4; 11-luc disseminated disease model, host response. Format: in vivo, mouse. The note with it: q4d × 3, i.v. The protocol: The efficacy study in the disseminated disease model was performed using immunodeficient NOD-SCID female mice approximately 7-8 weeks old (Jackson Laboratories, Bar Harbor, Me.). […] Routine animal care and assurance of welfare were as described above. […] Doses were adjusted to each animal's body weight. […] Approximately 10 minutes prior to imaging, mice were injected i.p. with 150 mg/kg luciferin (Xenogen Corporation, Alameda, Calif.), followed by anesthetization with isoflurane. Photon emission was measured using a charge coupled device camera in the IVIS imaging system (Xenogen Corporation). Briefly, a gray-scale image of the mice was captured, followed by an overlay of a bioluminescence map representing the spatial distribution of photons detected from cleaved luciferin in the cancer cells expressing luciferase. Signal intensity was quantified using a customized version of the IGOR Pro version 4.09A Software (WaveMetrics, Inc., Lake Oswego, Oreg.) called Living Image version 2.50.2 (Xenogen). The sum of all detected photon counts from the dorsal+ventral views was determined. Bioluminescence of cancer cells in the animals was measured by imaging on designated days until the first mice developed hind limb paralysis due to disease burden, the main end point for when to humanely euthanize mice. The day of euthanasia for each mouse was recorded and the remaining percentage of mice surviving was plotted over time (Kaplan-Meier survival analysis). P values were calculated using the log-rank test (GraphPad Prism 4.0 software) to assess differences between treated and control groups (p<0.05 was considered significant). […] Data analysis was performed as described above.

For series [2], the system named is Colo-205. Description: Caspase-Glo 3/7 assay. In kind it is cell-based. The settings on record: Homo sapiens. From the text: (§1) Identification of tumor types that are the most sensitive to the KSP inhibitors of the present invention can be accomplished using an unbiased approach that uses several cell-based assays. The assays chosen were as follows: • CellTiter-Glo®. This is an assay designed to measure ATP concentration in a cell culture, and can be correlated to cell number. Briefly CellTiter-Glo® (Promega Corporation) is a homogeneous method using the single CellTiter-Glo® reagent to detect ATP wherein ATP in the assay drives the activity of a thermostable luciferase to create a luminescent signal which can then be measured and correlated with the number of viable cells. Briefly, for adherent cells, 1,000 to 5,000 cells/well were plated in 96-well plates (100 μl/well) and let to adhere for 24 hours before being treated with drug. For non-adherent cells, 1,000 to 10,000 cells/well were plated in 96-well plates (100 μl/well) and immediately treated with drug. Drug dilutions were prepared in DMSO at 1000 times the final concentration. These dilutions were then diluted 1/100 in growth media before being added to the cells (11 μl/well) to achieve the desired final concentration. After 48 h in a 37° C. tissue culture incubator, the plates were processed for the CellTiter-Glo®assay according to the manufacturer's instructions. Protocol for a 72 hour cell proliferation assay: The 72 hour assay was performed the same way as the 48 hour assay except for the following modifications: For adherent cells, 500 to 5,000 cells/well were plated in 96-well plates (90 μl/well cell growth media) and left to adhere for 24 hours before being treated with drug. For non-adherent cells, 1,000 to 10,000 cells/well were plated in 96-well plates (90 μl/well cell growth media) and immediately treated with drug. Data values presented represent the concentration of test compound required for a 50% reduction in growth. • LDH release. The Cytotoxicity Detection KitPLUS (LDH) assay (Roche Diagnostics, Manheim, Germany) measures the amount of LDH released in the media by dying cells; LDH catalyzes the conversion of lactate into pyruvate. The enzymatic reaction is coupled to a chemical reaction that uses a tetrazolium salt to form a formazan that is red and can be detected by its absorbance at 490 nm. This assay measures the amount of cell death after drug treatment. Cells were plated at 10,000 cells/well in 96-well plates (100 μl/well). Adherent cells were let to adhere for 24 hours before being treated with drug, whereas non-adherent cells were immediately treated with drug. Drug dilutions were prepared in DMSO at 1000 times the final concentration. These dilutions were then diluted 1/100 in growth media before being added to the cells (11 μl/well) to achieve the desired final concentration. After 48 h in a 37° C. tissue culture incubator, the plates were processed for the Cytotoxicity Detection KitPLUS (LDH) assay according to the manufacturer's instructions. The media only values were subtracted from all the data points before analysis. Data values presented correspond to the compound concentration wherein LDH output is at half maximal level. • Caspase-Glo® 3/7. The Caspase-Glo® 3/7 Assay (Promega Corporation) is a homogeneous luminescent assay that measures caspase-3/7 activities. The assay provides a proluminescent caspase-3/7 DEVD-aminoluciferin substrate and a thermostable luciferase in a reagent optimized for caspase-3/7 activity, luciferase activity and cell lysis. Adding the single Caspase-Glo® 3/7 Reagent results in cell lysis, followed by caspase cleavage of the substrate. This liberates free aminoluciferin, which is consumed by the luciferase, generating a luminescent signal. The signal is proportional to caspase-3/7 activity. Data values presented correspond to the compound concentration wherein caspase 3/7 activity is at half maximal level.

The test system of series [3] is MV4; 11. Kind of series: Caspase-Glo 3/7 assay. Format: cell-based. The settings on record: Homo sapiens.
Description: as §1

Series [4] has as its system HCT-116. Kind of series: Caspase-Glo 3/7 assay. In kind it is cell-based. The note with it: Homo sapiens.
Description: as §1

Series [5] has as its system T47-D. Description: Caspase-Glo 3/7 assay. Format: cell-based. The note with it: Homo sapiens, T47D.
Description: as §1

For orientation: EC50 means the concentration giving half of the maximal effect. Higher therefore signals a need for much substance. In the case of `CC(C)(C)[C@H](c1nc(-c2cc(F)ccc2F)cn1Cc1ccccc1)N(CC[C@H](N)CF)C(=O)CO` [Compound IIa], the “% Max. Δ body weight, (Day)” value is listed as 5.6 ± 1.3% in series [1] (0.25 mg/kg, D5); −2.6 ± 2.3% in series [1] (0.5 mg/kg, D10); −4.2 ± 1.7% in series [1] (1 mg/kg, D10). Also, the “Max. Δ body weight (g) (Day)” value is 1.1 ± 0.44 g in series [1] (0.25 mg/kg, D5); -0.57 ± 0.45 g in series [1] (0.5 mg/kg, D10); -0.77 ± 0.32 g in series [1] (1 mg/kg, D10). Besides, the EC50 worked out at 130 pM in series [2] (Colo-205, 24 h); 210 pM in series [2] (Colo-205, 48 h); 190 pM in series [2] (Colo-205, 72 h); 20 pM in series [3] (MV4;11, 24 h); 30 pM in series [3] (MV4;11, 48 h); 120 pM in series [4] (HCT-116, 24 h). Besides, the EC50 in series [4] (HCT-116, 48 h) came to 90 pM; in series [5] (48 h), 390 pM; in series [5] (72 h), 400 pM.
